The text below walks through data of patent US6046182A, “Steroid carbamates as potentiating agents” (Satish BATRA, priority 1996, dated 2000).

In one experiment the test system is AT-1. Nature of the experiment: Potentiation of daunorubicin (30 nM) in rat prostatic tumor cells AT-1 (cell survival, Coulter counter). It is filed as cell-based.
For a further experiment, the system named is HCT-15. Nature of the experiment: Potentiation of daunorubicin (50 nM) in human colon tumor cells HCT-15 (cell survival, Coulter counter). It is filed as cell-based. The following applies: HCT-15, read-out: IC50, HCT-15 (concentration required to reduce cell survival by 50%).
A further experiment has as its system HCT-15 cells. Nature of the experiment: In vivo HCT-15 subcutaneous xenograft in SCID mice, doxorubicin alone or plus compound 1:1. On the set-up: Significance (p) of difference in tumor growth between (1) vehicle and (2) doxorubicin, symbol * / Significance (p) of difference in tumor growth between (1) vehicle and (2) doxorubicin, symbol ***: dose or concentration left out as unconfirmed. The following applies: days 9, 13, 17.

The conditions of experiment [1]: cited from earlier work.
The subject of a further experiment is tumors. The following applies: animal models; cited from earlier work.
Where [2] appears, read: with daunorubicin 30 nM, 24 h, then 96 h drug free, AT-1, read-out: IC50, AT-1 (concentration required to reduce cell survival by 50%).

pIC50: −log10 of the molar value. Read-outs that look alike come from different tables or passages of the source.

For `CCCCN(CCCC)CCCNC(=O)OC1CC[C@@]2(C)C(=CC[C@H]3[C@@H]4CC[C@H](C(C)=O)[C@@]4(C)CC[C@@H]32)C1` (stereo partly shown) [1:4, pregn-5-ene-20-one-3-yl, N-(3-dibutylamino-propyl)-carbamate], the pIC50 in the experiment on AT-1 (setting [2]) is 6.72.

Consider `CCCCN(CCCC)CCCNC(=O)OC(C)[C@H]1CC[C@H]2[C@@H]3CCC4=CC(=O)CC[C@]4(C)[C@H]3CC[C@]12C` (stereo partly shown) [1:13, pregn-4-ene-3-one-20-yl, N-(3-dibutylamino-propyl)-carbamate], for which the pIC50 with AT-1 (setting [2]) was 6.68.

Take `CC(=O)[C@H]1CC[C@H]2[C@@H]3CCC4=CC(=O)CC[C@]4(C)[C@H]3C(OC(=O)N(Cc3ccccc3)Cc3ccccc3)C[C@]12C` (stereo partly shown) [1:35, pregn-4-ene-3,20-dione-11-yl, N,N-dibenzyl-carbamate]: the pIC50 with AT-1 (setting [2]) is 6.82.

As for `CCCCN(CCCC)C(=O)OC1C[C@]2(C)[C@@H](C(C)=O)CC[C@H]2[C@@H]2CCC3=CC(=O)CC[C@]3(C)[C@@H]12` (stereo partly shown) [Compound 1:1, pregn-4-ene-3,20-dione-11-yl, N,N-dibutylcarbamate], the pIC50 is 6.29 in the experiment on HCT-15 (with daunorubicin 50 nM, 24 h, then 96 h drug free) and 6.12 with AT-1 (setting [2]). The “Potentiating effect in vivo” value with HCT-15 cells (compound 1:1 400 mg/kg p.o. 2 hours before doxorubicin i.v.) is on record as “potentiating effect”.

Regarding `COc1ccc(CCN(C)CCCC2(c3ccc4ccccc4c3)SCCCS2)cc1OC` [RO 11-2933], the “In vivo activity in combination with doxorubicin” value in experiment [1] was “in vivo activity”.

For `COc1cccc2c1C(=O)c1c(O)c3c(c(O)c1C2=O)C[C@@](O)(C(=O)CO)C[C@@H]3O[C@H]1C[C@H](N)[C@H](O)[C@H](C)O1` [doxorubicin], the “Significance (p) of difference in tumor growth between (1) vehicle and (2) doxorubicin, symbol *” value with HCT-15 cells (doxorubicin i.v., symbol *) was under 0.05. In addition, the “Significance (p) of difference in tumor growth between (1) vehicle and (2) doxorubicin, symbol ***” value in the experiment on HCT-15 cells (doxorubicin i.v., symbol ***) is given as under 0.005.

Consider `CC12CCC3c4ccc(OC(=O)N(CCCl)CCCl)cc4CCC3C1CCC2O` (stereo not shown) [estramustine], for which the pIC50 with HCT-15 was under 5.60. The “Potentiation of radiation effects on tumors” value in the experiment on tumors is reported as “potentiate radiation effects on tumors”.

On to `COc1ccc(CCN(C)CCCC(C#N)(c2ccc(OC)c(OC)c2)C(C)C)cc1OC` (stereo not shown) [verapamil], for which the pIC50 with HCT-15 is 6.30; with AT-1 (read-out: IC50, AT-1 (concentration required to reduce cell survival by 50%)) it was 6.13.
